Calls of active or inactive are those of the source. The rule behind the calls is not given here.
What was measured:
[1] = target: T1, Protein cereblon/Histone acetyltransferase p300 (Homo sapiens) (UniProt Q09472+Q96SW2); assay: PROTAC activity at CRBN/HiBiT-tagged p300 in human HAP1 cells assessed as total cumulative degradation by measuring AUC at 100 nM measured over 24 hrs by luminescence based analysis; type: cell-based
[2] = target: T1, Protein cereblon/Histone acetyltransferase p300 (Homo sapiens); assay: Binding affinity to recombinant CRBN/p300 bromodomain (unknown origin) assessed as ternary complex formation at 1 to 1000 nM by Alphascreen-based proximity assay; type: protein assay; settings: dose 1-1000 nM
[3] = target: T2, Protein cereblon/CREB-binding protein (Homo sapiens) (UniProt Q92793+Q96SW2); assay: Binding affinity to recombinant CRBN/CBP bromodomain (unknown origin) assessed as ternary complex formation at 1 to 1000 nM by Alphascreen-based proximity assay; type: protein assay; settings: dose 1-1000 nM
[4] = target: T2, Protein cereblon/CREB-binding protein (Homo sapiens); assay: PROTAC activity at CRBN/HiBiT-tagged CBP in human HAP1 cells assessed as total cumulative degradation by measuring AUC at 0.1 nM measured over 24 hrs by luminescence based analysis; type: cell-based
[5] = target: T1, Protein cereblon/Histone acetyltransferase p300 (Homo sapiens); assay: PROTAC activity at CRBN/HiBiT-tagged p300 in human HAP1 cells assessed as total cumulative degradation by measuring AUC at 0.01 nM measured over 24 hrs by luminescence based analysis; type: cell-based
[6] = target: T2, Protein cereblon/CREB-binding protein (Homo sapiens); assay: PROTAC activity at CRBN/HiBiT-tagged CBP in human HAP1 cells assessed as total cumulative degradation by measuring AUC at 1 nM measured over 24 hrs by luminescence based analysis; type: cell-based
[7] = target: T2, Protein cereblon/CREB-binding protein (Homo sapiens); assay: PROTAC activity at CRBN/HiBiT-tagged CBP in human HAP1 cells assessed as total cumulative degradation by measuring AUC at 0.01 nM measured over 24 hrs by luminescence based analysis; type: cell-based
[8] = target: T2, Protein cereblon/CREB-binding protein (Homo sapiens); assay: PROTAC activity at CRBN/HiBiT-tagged CBP in human HAP1 cells assessed as induction of CBP degradation by measuring maximal efficacy at 1 nM measured over 24 hrs by luminescence based analysis relative to control; type: cell-based
[9] = target: T1, Protein cereblon/Histone acetyltransferase p300 (Homo sapiens); assay: PROTAC activity at CRBN/HiBiT-tagged p300 in human HAP1 cells assessed as total cumulative degradation by measuring AUC at 0.1 nM measured over 24 hrs by luminescence based analysis; type: cell-based
[10] = target: T2, Protein cereblon/CREB-binding protein (Homo sapiens); assay: PROTAC activity at CRBN/HiBiT-tagged CBP in human HAP1 cells assessed as induction of CBP degradation by measuring maximal efficacy at 10 nM measured over 24 hrs by luminescence based analysis relative to control; type: cell-based
[11] = target: T1, Protein cereblon/Histone acetyltransferase p300 (Homo sapiens); assay: PROTAC activity at CRBN/HiBiT-tagged p300 in human HAP1 cells assessed as total cumulative degradation by measuring AUC at 1 nM measured over 24 hrs by luminescence based analysis; type: cell-based
[12] = target: T1, Protein cereblon/Histone acetyltransferase p300 (Homo sapiens); assay: PROTAC activity at CRBN/HiBiT-tagged p300 in human HAP1 cells assessed as induction of p300 degradation by measuring maximal efficacy at 1000 nM measured over 24 hrs by luminescence based analysis relative to control; type: cell-based
[13] = target: T1, Protein cereblon/Histone acetyltransferase p300 (Homo sapiens); assay: PROTAC activity at CRBN/HiBiT-tagged p300 in human HAP1 cells assessed as total cumulative degradation by measuring AUC at 10 nM measured over 24 hrs by luminescence based analysis; type: cell-based
[14] = target: T1, Protein cereblon/Histone acetyltransferase p300 (Homo sapiens); assay: PROTAC activity at CRBN/HiBiT-tagged p300 in human HAP1 cells assessed as total cumulative degradation by measuring AUC at 1000 nM measured over 24 hrs by luminescence based analysis; type: cell-based
[15] = target: T2, Protein cereblon/CREB-binding protein (Homo sapiens); assay: PROTAC activity at CRBN/HiBiT-tagged CBP in human HAP1 cells assessed as induction of CBP degradation by measuring degradation rate at 1000 nM measured over 24 hrs by luminescence based analysis; type: cell-based
[16] = target: Protein cereblon/Bromodomain-containing protein 4 (Homo sapiens) (UniProt O60885+Q96SW2); assay: PROTAC activity at CRBN/HiBiT-tagged BRD4 in human HAP1 cells assessed as induction of BRD4 degradation measured over 24 hrs by luminescence based analysis; type: cell-based
[17] = target: T2, Protein cereblon/CREB-binding protein (Homo sapiens); assay: PROTAC activity at CRBN/HiBiT-tagged CBP in human HAP1 cells assessed as induction of CBP degradation by measuring maximal efficacy at 100 nM measured over 24 hrs by luminescence based analysis relative to control; type: cell-based
[18] = target: T1, Protein cereblon/Histone acetyltransferase p300 (Homo sapiens); assay: PROTAC activity at CRBN/HiBiT-tagged p300 in human HAP1 cells assessed as induction of p300 degradation by measuring maximal efficacy at 10 nM measured over 24 hrs by luminescence based analysis relative to control; type: cell-based
[19] = target: T2, Protein cereblon/CREB-binding protein (Homo sapiens); assay: PROTAC activity at CRBN/HiBiT-tagged CBP in human HAP1 cells assessed as induction of CBP degradation by measuring degradation rate at 0.1 nM measured over 24 hrs by luminescence based analysis; type: cell-based
[20] = target: T1, Protein cereblon/Histone acetyltransferase p300 (Homo sapiens); assay: PROTAC activity at CRBN/HiBiT-tagged p300 in human HAP1 cells assessed as induction of p300 degradation by measuring degradation rate at 100 nM measured over 24 hrs by luminescence based analysis; type: cell-based
[21] = target: T1, Protein cereblon/Histone acetyltransferase p300 (Homo sapiens); assay: PROTAC activity at CRBN/HiBiT-tagged p300 in human HAP1 cells assessed as induction of p300 degradation by measuring maximal efficacy at 1 nM measured over 24 hrs by luminescence based analysis relative to control; type: cell-based
[22] = target: T1, Protein cereblon/Histone acetyltransferase p300 (Homo sapiens); assay: PROTAC activity at CRBN/HiBiT-tagged p300 in human HAP1 cells assessed as induction of p300 degradation by measuring maximal efficacy at 100 nM measured over 24 hrs by luminescence based analysis relative to control; type: cell-based
[23] = target: T2, Protein cereblon/CREB-binding protein (Homo sapiens); assay: PROTAC activity at CRBN/HiBiT-tagged CBP in human HAP1 cells assessed as induction of CBP degradation by measuring degradation rate at 100 nM measured over 24 hrs by luminescence based analysis; type: cell-based
[24] = target: T1, Protein cereblon/Histone acetyltransferase p300 (Homo sapiens); assay: PROTAC activity at CRBN/HiBiT-tagged p300 in human HAP1 cells assessed as induction of p300 degradation by measuring degradation rate at 10 nM measured over 24 hrs by luminescence based analysis; type: cell-based
[25] = target: T2, Protein cereblon/CREB-binding protein (Homo sapiens); assay: PROTAC activity at CRBN/HiBiT-tagged CBP in human HAP1 cells assessed as induction of CBP degradation by measuring maximal efficacy at 0.1 nM measured over 24 hrs by luminescence based analysis relative to control; type: cell-based
[26] = target: T2, Protein cereblon/CREB-binding protein (Homo sapiens); assay: PROTAC activity at CRBN/HiBiT-tagged CBP in human HAP1 cells assessed as induction of CBP degradation by measuring maximal efficacy at 1000 nM measured over 24 hrs by luminescence based analysis relative to control; type: cell-based
[27] = target: T2, Protein cereblon/CREB-binding protein (Homo sapiens); assay: PROTAC activity at CRBN/HiBiT-tagged CBP in human HAP1 cells assessed as induction of CBP degradation by measuring degradation rate at 1 nM measured over 24 hrs by luminescence based analysis; type: cell-based
[28] = target: T1, Protein cereblon/Histone acetyltransferase p300 (Homo sapiens); assay: PROTAC activity at CRBN/HiBiT-tagged p300 in human HAP1 cells assessed as induction of p300 degradation by measuring degradation rate at 1 nM measured over 24 hrs by luminescence based analysis; type: cell-based
[29] = target: T2, Protein cereblon/CREB-binding protein (Homo sapiens); assay: PROTAC activity at CRBN/HiBiT-tagged CBP in human HAP1 cells assessed as total cumulative degradation by measuring AUC at 10 nM measured over 24 hrs by luminescence based analysis; type: cell-based
[30] = target: T2, Protein cereblon/CREB-binding protein (Homo sapiens); assay: PROTAC activity at CRBN/HiBiT-tagged CBP in human HAP1 cells assessed as induction of CBP degradation by measuring degradation rate at 10 nM measured over 24 hrs by luminescence based analysis; type: cell-based
[31] = target: T1, Protein cereblon/Histone acetyltransferase p300 (Homo sapiens); assay: PROTAC activity at CRBN/HiBiT-tagged p300 in human HAP1 cells assessed as induction of p300 degradation by measuring degradation rate at 0.1 nM measured over 24 hrs by luminescence based analysis; type: cell-based
[32] = target: T2, Protein cereblon/CREB-binding protein (Homo sapiens); assay: PROTAC activity at CRBN/HiBiT-tagged CBP in human HAP1 cells assessed as total cumulative degradation by measuring AUC at 1000 nM measured over 24 hrs by luminescence based analysis; type: cell-based
[33] = target: T2, Protein cereblon/CREB-binding protein (Homo sapiens); assay: PROTAC activity at CRBN/HiBiT-tagged CBP in human HAP1 cells assessed as total cumulative degradation by measuring AUC at 100 nM measured over 24 hrs by luminescence based analysis; type: cell-based
[34] = target: T1, Protein cereblon/Histone acetyltransferase p300 (Homo sapiens); assay: PROTAC activity at CRBN/HiBiT-tagged p300 in human HAP1 cells assessed as induction of p300 degradation by measuring maximal efficacy at 0.1 nM measured over 24 hrs by luminescence based analysis relative to control; type: cell-based
[35] = target: T1, Protein cereblon/Histone acetyltransferase p300 (Homo sapiens); assay: PROTAC activity at CRBN/HiBiT-tagged p300 in human HAP1 cells assessed as induction of p300 degradation by measuring degradation rate at 1000 nM measured over 24 hrs by luminescence based analysis; type: cell-based
[36] = target: T2, Protein cereblon/CREB-binding protein (Homo sapiens); assay: Binding affinity to recombinant CRBN/CBP bromodomain (unknown origin) assessed as ternary complex formation at 10 to 100 nM by Alphascreen-based proximity assay; type: protein assay; settings: dose 10-100 nM
[37] = target: T1, Protein cereblon/Histone acetyltransferase p300 (Homo sapiens); assay: Binding affinity to recombinant CRBN/p300 bromodomain (unknown origin) assessed as ternary complex formation at 10 to 100 nM by Alphascreen-based proximity assay; type: protein assay; settings: dose 10-100 nM

T2 sequence (Q92793 2-2442 limits assumed): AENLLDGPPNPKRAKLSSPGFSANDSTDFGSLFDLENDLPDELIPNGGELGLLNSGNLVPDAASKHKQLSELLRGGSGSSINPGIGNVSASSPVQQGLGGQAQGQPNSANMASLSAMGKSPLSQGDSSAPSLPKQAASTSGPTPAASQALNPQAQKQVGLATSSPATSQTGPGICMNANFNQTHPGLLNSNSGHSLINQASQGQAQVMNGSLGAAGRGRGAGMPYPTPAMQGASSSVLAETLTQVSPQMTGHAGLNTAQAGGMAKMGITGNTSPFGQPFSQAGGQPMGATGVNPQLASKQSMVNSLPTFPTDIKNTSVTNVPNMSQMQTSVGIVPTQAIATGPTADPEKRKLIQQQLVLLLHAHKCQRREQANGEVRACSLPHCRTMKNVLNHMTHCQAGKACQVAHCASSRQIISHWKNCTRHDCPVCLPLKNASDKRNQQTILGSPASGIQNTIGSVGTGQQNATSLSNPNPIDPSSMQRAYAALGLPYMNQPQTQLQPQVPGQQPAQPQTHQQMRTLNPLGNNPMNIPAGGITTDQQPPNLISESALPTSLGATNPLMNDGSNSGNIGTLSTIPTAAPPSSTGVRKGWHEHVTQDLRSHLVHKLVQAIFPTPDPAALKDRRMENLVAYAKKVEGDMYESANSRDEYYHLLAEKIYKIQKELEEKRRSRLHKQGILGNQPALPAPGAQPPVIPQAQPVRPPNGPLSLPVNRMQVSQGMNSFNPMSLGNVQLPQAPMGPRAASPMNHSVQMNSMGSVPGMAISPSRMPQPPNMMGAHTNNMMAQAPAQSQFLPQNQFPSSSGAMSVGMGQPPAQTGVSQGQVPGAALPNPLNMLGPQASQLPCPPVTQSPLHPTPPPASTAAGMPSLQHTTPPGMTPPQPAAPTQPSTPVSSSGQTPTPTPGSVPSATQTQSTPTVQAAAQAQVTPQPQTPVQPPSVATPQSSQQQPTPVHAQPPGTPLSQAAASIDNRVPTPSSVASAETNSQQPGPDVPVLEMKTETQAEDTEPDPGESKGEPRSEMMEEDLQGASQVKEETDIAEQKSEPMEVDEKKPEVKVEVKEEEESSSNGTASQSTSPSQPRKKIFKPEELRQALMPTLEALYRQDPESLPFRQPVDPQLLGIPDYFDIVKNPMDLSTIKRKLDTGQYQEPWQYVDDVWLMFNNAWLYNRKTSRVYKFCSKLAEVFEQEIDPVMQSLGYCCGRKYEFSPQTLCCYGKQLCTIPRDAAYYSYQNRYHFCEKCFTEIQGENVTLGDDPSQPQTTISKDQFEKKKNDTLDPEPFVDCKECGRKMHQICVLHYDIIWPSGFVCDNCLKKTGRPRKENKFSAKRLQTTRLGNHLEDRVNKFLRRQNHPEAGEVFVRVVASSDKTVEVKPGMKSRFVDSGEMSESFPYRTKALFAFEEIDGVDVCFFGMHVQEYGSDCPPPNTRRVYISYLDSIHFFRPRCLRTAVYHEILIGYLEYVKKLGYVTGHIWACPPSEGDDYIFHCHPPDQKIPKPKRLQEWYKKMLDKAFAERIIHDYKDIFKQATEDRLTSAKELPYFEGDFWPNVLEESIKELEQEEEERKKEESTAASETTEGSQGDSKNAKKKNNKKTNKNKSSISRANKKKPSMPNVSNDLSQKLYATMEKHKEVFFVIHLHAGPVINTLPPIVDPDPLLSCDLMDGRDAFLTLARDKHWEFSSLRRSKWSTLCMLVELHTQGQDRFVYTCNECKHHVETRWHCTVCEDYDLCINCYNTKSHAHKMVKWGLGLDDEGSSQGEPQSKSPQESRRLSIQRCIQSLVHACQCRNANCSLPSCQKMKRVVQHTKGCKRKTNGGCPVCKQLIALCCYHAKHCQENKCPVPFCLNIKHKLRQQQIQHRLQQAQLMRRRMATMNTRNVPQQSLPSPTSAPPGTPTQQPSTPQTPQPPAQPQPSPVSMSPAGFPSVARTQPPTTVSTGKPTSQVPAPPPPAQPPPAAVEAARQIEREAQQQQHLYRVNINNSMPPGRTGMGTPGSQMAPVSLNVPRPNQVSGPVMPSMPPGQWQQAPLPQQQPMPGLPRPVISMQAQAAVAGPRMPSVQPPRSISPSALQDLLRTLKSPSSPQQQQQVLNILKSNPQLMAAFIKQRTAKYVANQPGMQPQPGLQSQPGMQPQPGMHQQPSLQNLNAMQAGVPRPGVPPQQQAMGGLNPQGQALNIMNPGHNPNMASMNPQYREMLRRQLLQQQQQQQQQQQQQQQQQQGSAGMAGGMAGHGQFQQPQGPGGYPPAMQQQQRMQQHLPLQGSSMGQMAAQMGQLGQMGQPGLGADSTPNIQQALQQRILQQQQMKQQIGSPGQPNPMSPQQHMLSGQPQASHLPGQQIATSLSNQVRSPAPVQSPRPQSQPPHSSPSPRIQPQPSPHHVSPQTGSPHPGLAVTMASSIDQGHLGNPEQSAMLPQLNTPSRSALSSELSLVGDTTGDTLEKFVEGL
T2 sequence (Q96SW2 whole entry partner): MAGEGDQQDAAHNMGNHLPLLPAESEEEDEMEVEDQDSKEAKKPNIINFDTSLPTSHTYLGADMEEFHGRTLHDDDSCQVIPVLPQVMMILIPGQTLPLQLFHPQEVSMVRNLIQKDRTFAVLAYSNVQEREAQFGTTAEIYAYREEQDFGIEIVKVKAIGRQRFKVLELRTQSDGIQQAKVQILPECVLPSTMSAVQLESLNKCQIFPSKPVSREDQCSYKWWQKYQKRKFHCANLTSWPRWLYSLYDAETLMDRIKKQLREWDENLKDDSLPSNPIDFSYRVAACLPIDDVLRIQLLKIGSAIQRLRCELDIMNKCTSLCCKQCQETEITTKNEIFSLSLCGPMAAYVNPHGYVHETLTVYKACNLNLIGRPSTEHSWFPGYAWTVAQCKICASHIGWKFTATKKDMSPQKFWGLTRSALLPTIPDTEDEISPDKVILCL
Sequence of Protein cereblon/Bromodomain-containing protein 4 (Homo sapiens) (Q96SW2 whole entry, looked up, other chains not shown): as the sequence (Q96SW2 whole entry partner) above

Row | AUC [1] | AUC [4] | AUC [5] | AUC [6] | AUC [7] | Emax [8] [%] | AUC [9] | Emax [10] [%] | AUC [11] | Emax [12] [%] | AUC [13] | AUC [14] | Activity [15] [h⁻¹] | Activity [16] | Emax [17] [%] | Emax [18] [%] | Activity [19] [h⁻¹] | Activity [20] [h⁻¹] | Emax [21] [%] | Emax [22] [%] | other results | Structure (SMILES)
1 | 3.7 | 20.7 | 26.1 | 10.4 | 24.7 | 63 | 21.7 | 86 | 12.2 | 86 | 5.1 | 4.8 | 0.4 | inactive | 89 | 83 | 0.12 | 1 | 57 | 88 | Activity [2]: Active; Activity [3]: Active; Activity [23]: 0.81 h⁻¹; Activity [24]: 1 h⁻¹; Emax [25]: 25%; Emax [26]: 83%; Activity [27]: 0.54 h⁻¹; Activity [28]: 0.37 h⁻¹; AUC [29]: 4.4; Activity [30]: 1.1 h⁻¹; Activity [31]: 0.02 h⁻¹; AUC [32]: 6.4; AUC [33]: 3.9; Emax [34]: 27%; Activity [35]: 0.57 h⁻¹ | CNC(=O)N1CCc2c(c(N3CCCc4cc(-c5cnn(C)c5)c(C(F)F)cc43)nn2C2CCN(C(=O)CCOCCOCCOCCOCCNc3ccc4c(c3)C(=O)N(C3CCC(=O)NC3=O)C4=O)CC2)C1 (stereo not given)
2 | 3.9 | 20.8 | 26.5 | 10.7 | 24.1 | 61 | 23.2 | 85 | 12.3 | 84 | 5.2 | 6 | 0.32 | inactive | 88 | 82 | 0.21 | 1 | 56 | 88 | Activity [36]: Active; Activity [23]: 0.83 h⁻¹; Activity [24]: 1.3 h⁻¹; Emax [25]: 20%; Emax [26]: 80%; Activity [37]: Active; Activity [27]: 0.63 h⁻¹; Activity [28]: 0.41 h⁻¹; AUC [29]: 4.4; Activity [30]: 1.3 h⁻¹; Activity [31]: 1 10^-4/hr; AUC [32]: 7.4; AUC [33]: 4; Emax [34]: 17%; Activity [35]: 0.42 h⁻¹ | CNC(=O)N1CCc2c(c(N3CCCc4cc(-c5cnn(C)c5)c(C(F)(F)F)cc43)nn2C2CCN(C(=O)CCOCCOCCOCCOCCNc3ccc4c(c3)C(=O)N(C3CCC(=O)NC3=O)C4=O)CC2)C1 (stereo not given)

From ChEMBL document CHEMBL5579809, “Exploration of bromodomain ligand-linker conjugation sites for efficient CBP/p300 heterobifunctional degrader activity” (Bioorg Med Chem Lett, 2024)
